The text below walks through data of patent US7034040B2, “Fluorinated heterocyclic compounds and methods of synthesis” (R.T. Alamo Ventures I, priority 2002, dated 2006).

In assay [1] the test system is Protein Serine/Threonine Kinase PKC, Non-Selective. As to the kind of experiment: Protein serine/threonine kinase PKC, non-selective, enzyme assay. The format is biochemical. The following applies: rat brain enzyme. The source says:
In this example, monofluoroflosequinan was subjected to biochemical enzyme assays and radioligand binding assays to determine its percent inhibition of a variety of enzyme activities and its percent inhibition of specific binding. The methods used have been adapted from those described in the scientific literature, see Hidaka and Asano “Human blood platelet 3′:5′ cyclic nucleotide phosphodiesterase. Isolation of low-Km and high Km phosphodiesterase.” Biochem. Biophys. Acta 429:485 (1976); Nicholoson et al. “Differential modulation of tissue function and therapeutic potential of selective inhibitors of cyclic nucleotide phosphodiesterase isoenzymes” Trends Pharmacol. Sci. 12:19 (1991); Cortijo et al. “Investigation into the role of phosphodiesterase IV in bronchorelaxation, including studies with hyman bronchus.” Br. J Pharmacol. 108:562 (1993); Baehr et al. “Isolation and characterization of cGMP phosphodiesterase from bovine rod outer segments.” J. Biol. Chem. 254:11669 (1979), Gillespie and Beavo “Inhibition and stimulation of photoreceptor phosphodiesterase by dipyridamole and M&B 22,948” Molecular Pharm. 36:773 (1989); Tamaoki and Nakano “Potent and specific inhibitors of protein kinase C of microbial origin” Biotechnology 8:732 (1990); Wilkinson et al. “Isoenzyme specificity of bisindolymaleimides, selective inhibitors of protein kinase C” Biochem. J 294:335 (1993); Tamaki et al. “Staurosporine, a potent inhibitor of phospholipid/Ca++dependent protein kinase” Biochem. Biophys. Res. Comm, 135:397 (1986); Schoemaker and Langer “[3H]Diltiazem binding to calcium channel antagonist recognition sites in rate cerebral cortex” Eur. J Pharmacol. 111:273 (1985); Ehlert et al. “The binding of [3H]nitrendipine to receptors for calcium channel antagonists in the heart, cerebral cortex and ileum of rats.” Life Sci. 30:2191 (1982); Gould et al. “[3H]nitrendipine-labeled calcium channels discriminate inorganic calcium agonists and antagonists” Proc. Natl. Acad. Sci. USA 79:3656 (1982); Reynolds et al. “(−)−[3H]Desmethoxyverapamil labels multiple calcium channel modulator receptors in brain and skeletal muscle membranes: Differentiation by temperature and dihydropyridines” J Pharmacol. Exp. Ther. 237:731 (1986) and Worley et al. “Characterization of inositol triphosphate receptor binding in brain. Regulation by pH and calcium” J Biol. Chem. 262:12132 (1987). A brief summary of the conditions for each assay is provided below:
Protein Serine/Threonine Kinase PKC, Non-Selective: The enzyme was obtained from rat brain and the substrate was 370 μg/ml histone. The reaction was pre-incubated 5 min at 25° C., followed by a 15 min incubation at 25° C. in a buffer of 20 mM Tris-HCl, 10 mM MgCl2.Ho and 0.1 mM CaCl2.2HO, pH 7.4. [^32P]histone was quantitated.

For a further assay, the system named is PDE1. Put plainly: PDE1 enzyme inhibition assay. The format is biochemical. The following applies: 1000 μM compound, 1% DMSO vehicle, bovine heart enzyme. An excerpt: (§1) In this example, monofluoroflosequinan was subjected to biochemical enzyme assays and radioligand binding assays to determine its percent inhibition of a variety of enzyme activities and its percent inhibition of specific binding. The methods used have been adapted from those described in the scientific literature, see Hidaka and Asano “Human blood platelet 3′:5′ cyclic nucleotide phosphodiesterase. Isolation of low-Km and high Km phosphodiesterase.” Biochem. Biophys. Acta 429:485 (1976); Nicholoson et al. “Differential modulation of tissue function and therapeutic potential of selective inhibitors of cyclic nucleotide phosphodiesterase isoenzymes” Trends Pharmacol. Sci. 12:19 (1991); Cortijo et al. “Investigation into the role of phosphodiesterase IV in bronchorelaxation, including studies with hyman bronchus.” Br. J Pharmacol. 108:562 (1993); Baehr et al. “Isolation and characterization of cGMP phosphodiesterase from bovine rod outer segments.” J. Biol. Chem. 254:11669 (1979), Gillespie and Beavo “Inhibition and stimulation of photoreceptor phosphodiesterase by dipyridamole and M&B 22,948” Molecular Pharm. […]
PDE1: PDE1 partially purified from bovine heart was used. […] Unhydrolyzed cAMP was bound to AGI-X2 resin, and the remaining [^3H]adenosine in the aqueous phase was quantitated by scintillation counting.

The target in another assay is T1, PDE3 (Homo sapiens, UniProt Q14432).
T1 construct: PDE3 partially purified from human platelets was used; from tissue; host or cells: human platelets
T1 sequence (Q14432 whole entry): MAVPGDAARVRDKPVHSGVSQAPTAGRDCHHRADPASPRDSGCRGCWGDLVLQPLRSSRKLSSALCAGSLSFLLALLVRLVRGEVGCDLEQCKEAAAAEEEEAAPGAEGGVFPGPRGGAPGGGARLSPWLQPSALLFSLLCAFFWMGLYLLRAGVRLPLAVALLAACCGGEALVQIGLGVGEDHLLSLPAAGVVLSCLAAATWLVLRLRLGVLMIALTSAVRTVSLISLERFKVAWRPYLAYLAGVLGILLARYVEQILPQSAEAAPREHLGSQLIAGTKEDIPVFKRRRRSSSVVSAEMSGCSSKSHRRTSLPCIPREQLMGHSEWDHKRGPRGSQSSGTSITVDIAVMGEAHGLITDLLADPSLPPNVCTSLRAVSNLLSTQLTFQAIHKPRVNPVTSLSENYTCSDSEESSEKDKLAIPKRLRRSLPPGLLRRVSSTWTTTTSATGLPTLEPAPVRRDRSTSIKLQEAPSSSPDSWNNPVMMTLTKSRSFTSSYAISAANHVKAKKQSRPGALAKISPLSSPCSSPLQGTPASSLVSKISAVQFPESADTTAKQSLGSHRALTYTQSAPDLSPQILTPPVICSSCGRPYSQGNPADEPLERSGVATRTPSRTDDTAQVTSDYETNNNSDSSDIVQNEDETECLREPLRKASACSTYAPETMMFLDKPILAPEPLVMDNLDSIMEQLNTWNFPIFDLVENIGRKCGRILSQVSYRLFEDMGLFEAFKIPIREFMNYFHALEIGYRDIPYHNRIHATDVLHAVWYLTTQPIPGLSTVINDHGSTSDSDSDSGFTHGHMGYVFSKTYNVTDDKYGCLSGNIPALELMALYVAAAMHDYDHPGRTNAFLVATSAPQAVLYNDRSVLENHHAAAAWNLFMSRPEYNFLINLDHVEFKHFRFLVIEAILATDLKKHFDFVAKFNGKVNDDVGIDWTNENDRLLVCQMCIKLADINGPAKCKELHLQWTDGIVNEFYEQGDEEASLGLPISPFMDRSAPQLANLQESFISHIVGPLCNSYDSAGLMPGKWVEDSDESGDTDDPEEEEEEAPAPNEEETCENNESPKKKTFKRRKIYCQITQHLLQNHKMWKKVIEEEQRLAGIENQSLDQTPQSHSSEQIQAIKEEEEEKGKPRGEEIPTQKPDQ
Put plainly: PDE3 enzyme inhibition assay. The following applies: 1000 μM compound, 1% DMSO vehicle, human platelet enzyme. The class given is biochemical.
Description: as §1
PDE3: PDE3 partially purified from human platelets was used. […] Unhydrolyzed cAMP was bound to AGI-X2 resin, and the remaining [^3H]adenosine in the aqueous phase was quantitated by scintillation counting.

Assay [2] concerns the target Calcium Channel Type L, Dihydropyridine. The following applies: Wistar rat cerebral cortex, 90 min at 25° C.; read-out: Kd (historical value of the radioligand); cited from earlier work.
For a further assay, the system named is PDE4. Put plainly: PDE4 enzyme inhibition assay. The class given is biochemical. As to conditions: 1000 μM compound, 1% DMSO vehicle, human U-937 cell enzyme.
Description: as §1
PDE4: PDE4 partially purified from human U-937 pronocytic cells was used. […] Unhydrolyzed cAMP was bound to AGI-X2 resin, and the remaining [^3H]adenosine in the aqueous phase was quantitated by scintillation counting.

Take `Cn1cc([S+]([O-])CF)c(=O)c2ccc(F)cc21` (racemic) [monofluoroflosequinan, 7-fluoro-3-fluoromethylsulfinyl-1-methyl-4-quinolone]: the “inhibition of protein serine/threonine kinase, PKC, non-selective” value is “Significant inhibition” in assay [1] (100 μM compound); “Significant inhibition” in assay [1] (300 μM compound); “Significant inhibition” in assay [1] (1000 μM compound, 1% DMSO vehicle).

The inhibition is the drop in the measured response relative to a control, in per cent. Read a low inhibition as a weak effect. As to `Cn1cc([S+]([O-])C(F)F)c(=O)c2ccc(F)cc21` (stereo not shown) [difluoroflosequinan, 3-difluoromethylsulfinyl-7-fluoro-1-methyl-4-quinolone], in the assay on PDE1, the “inhibition of PDE1” value is “greater than 50%”. This molecule displayed an inhibition at 1000 µM against PDE3 above 50%. For the same molecule, the “inhibition of protein serine/threonine kinase, PKC, non-selective” value in assay [1] (1000 μM compound) is “greater than 50%”.

One may read the Kd as the free concentration of one partner at which half of the binding sites on the other are occupied at equilibrium, for simple one-to-one binding. Turning to `CCOC(=O)C1=C(C)NC(C)=C(C(=O)OC)C1c1cccc([N+](=O)[O-])c1` (stereo not shown) [^3H Nitrendipine], the Kd in assay [2] is 0.18 nM.

For `Cn1cc(S(=O)(=O)C(F)F)c(=O)c2ccc(F)cc21` [3-difluoromethylsulfonyl-7-fluoro-1-methyl-4-quinolone], the “inhibition of PDE1” value in the assay with PDE1 was “greater than 50%”. The same molecule came in with an inhibition at 1000 µM on PDE3 above 50%. Further, the “inhibition of PDE4” value with PDE4 is reported as “greater than 50%”.
